Experimental findings from patent publication US8598085B2, “2-(2-fluoro-substituted phenyl)-6-amino-5-chloro-4-pyrimidinecarboxylates and their use as herbicides” (Dow AgroSciences LLC, priority 2007, dated 2013) are described below.

Data set [1] relates to ABUTH—Velvetleaf (Abutilon theophrasti). Put plainly: General postemergence herbicidal activity, velvetleaf. Conditions: post-emergence, 336 h, post-emergent, rate 140 g ai/ha, visual score after 14 days (0 no injury, 100 complete kill), read-out: % Growth Reduction ABUTH. In kind it is in vivo. The protocol: (§1) Seeds or nutlets of the desired test plant species were planted in Sun Gro MetroMix® 306 planting mixture, which typically has a pH of 6.0 to 6.8 and an organic matter content of about 30 percent, in plastic pots with a surface area of 64 square centimeters. When required to ensure good germination and healthy plants, a fungicide treatment and/or other chemical or physical treatment was applied. The plants were grown for 7-21 days in a greenhouse with an approximate 15 hour photoperiod which was maintained at about 23-29° C. during the day and 22-28° C. during the night. Nutrients and water were added on a regular basis and supplemental lighting was provided with overhead metal halide 1000-Watt lamps as necessary. The plants were employed for testing when they reached the first or second true leaf stage.
(§2) A weighed amount, determined by the highest rate to be tested, of each test compound was placed in a 25 mL glass vial and was dissolved in 4 mL of a 97:3 v/v (volume/volume) mixture of acetone and dimethyl sulfoxide (DMSO) to obtain concentrated stock solutions. […] The concentrated stock solutions obtained were diluted with 20 mL of an aqueous mixture containing acetone, water, isopropyl alcohol, DMSO, Atplus 411F crop oil concentrate, and Triton X-155 surfactant in a 48.5:39:10:1.5:1.0:0.02 v/v ratio to obtain spray solutions containing the highest application rates. Additional application rates were obtained by serial dilution of 12 mL of the high rate solution into a solution containing 2 mL of 97:3 v/v (volume/volume) mixture of acetone and DMSO and 10 mL of an aqueous mixture containing acetone, water, isopropyl alcohol, DMSO, Atplus 411F crop oil concentrate, and Triton X-155 surfactant in a 48.5:39:10:1.5:1.0:0.02 v/v ratio to obtain ½X, ¼X, ⅛X and 1/16X rates of the high rate. Compound requirements are based upon a 12 mL application volume at a rate of 187 L/ha. Formulated compounds were applied to the plant material with an overhead Mandel track sprayer equipped with 8002E nozzles calibrated to deliver 187 L/ha over an application area of 0.503 square meters at a spray height of 18 inches […] above the average plant canopy height. Control plants were sprayed in the same manner with the solvent blank.
(§3) The treated plants and control plants were placed in a greenhouse as described above and watered by sub-irrigation to prevent wash-off of the test compounds. After 14 days, the condition of the test plants as compared with that of the untreated plants was determined visually and scored on a scale of 0 to 100 percent where 0 corresponds to no injury and 100 corresponds to complete kill.

In data set [2] the test system is POLCO—Wild buckwheat (Polygonum convolvulus). Put plainly: General postemergence herbicidal activity, wild buckwheat. In kind it is in vivo. Conditions: Fallopia convolvulus, post-emergence, 336 h; post-emergent, rate 140 g ai/ha, visual score after 14 days (0 no injury, 100 complete kill); read-out: % Growth Reduction POLCO. The protocol: as §1, §2, §3
Data set [3] concerns CIRAR—Canada thistle (Cirsium arvense). The data set is described as follows: General postemergence herbicidal activity, Canada thistle. In kind it is in vivo. The settings on record: post-emergence, 336 h, post-emergent, rate 140 g ai/ha, visual score after 14 days (0 no injury, 100 complete kill), read-out: % Growth Reduction CIRAR. The protocol:
as §1, §2, §3

The test system of data set [4] is ECHCG—Barnyardgrass (Echinochloa crus-galli). The data set is described as follows: General postemergence herbicidal activity, barnyardgrass. Conditions: post-emergence, 336 h, post-emergent, rate 140 g ai/ha, visual score after 14 days (0 no injury, 100 complete kill), read-out: % Growth Reduction ECHCG. In kind it is in vivo. As for the experimental part:
as §1, §2, §3

Another data set concerns ZEAMX—Corn (Zea mays). Put plainly: General preemergence herbicidal activity, corn. In kind it is in vivo. Conditions: pre-emergent, rate 140 g ai/ha, visual score after 20-22 days (0 no injury, 100 complete kill or no emergence), read-out: % Growth Inhibition ZEAMX. From the text: (§4) Seeds of the desired test plant species were planted in a soil matrix prepared by mixing a loam soil (43 percent silt, 19 percent clay, and 38 percent sand, with a pH of about 8.1 and an organic matter content of about 1.5 percent) and sand in a 70 to 30 ratio. The soil matrix was contained in plastic pots with a surface area of 113 square centimeters. When required to ensure good germination and healthy plants, a fungicide treatment and/or other chemical or physical treatment was applied. A weighed amount, determined by the highest rate to be tested, of each test compound was placed in a 25 mL glass vial and was dissolved in 6 mL of a 97:3 v/v (volume/volume) mixture of acetone and DMSO to obtain concentrated stock solutions. […] The stock solutions obtained were diluted with 18 mL of a 0.1% v/v aqueous solution of Tween® 20 surfactant to obtain spray solutions containing the highest application rate. Additional application rates were obtained by serial dilution of 12 mL of the high rate solution into a solution containing 3 mL of 97:3 v/v mixture of acetone and DMSO and 9 mL of the 0.1% v/v aqueous solution of Tween® 20 surfactant to obtain 1⁄2X, 1⁄4X, 1⁄8X and 1/16X rates of the high rate. Compound requirements are based upon a 12 mL application volume at a rate of 187 L/ha. Formulated compounds were applied to the plant material with an overhead Mandel track sprayer equipped with […] nozzles calibrated to deliver 187 L/ha over an application area of 0.503 square meters at a spray height of 18 inches (43 cm) above the soil surface. Control plants were sprayed in the same manner with the solvent blank. The treated pots and control pots were placed in a greenhouse maintained with an approximate 15 hour photoperiod and temperatures of about 23-29° C. during the day and 22-28° C. during the night. Nutrients and water were added on a regular basis and supplemental lighting was provided with overhead metal halide 1000-Watt lamps as necessary. The water was added by top-irrigation. After 20-22 days, the condition of the test plants that germinated and grew as compared with that of the untreated plants that emerged and grew was determined visually and scored on a scale of 0 to 100 percent where 0 corresponds to no injury and 100 corresponds to complete kill or no emergence.

Data set [5] concerns CHEAL—Common lambsquarters (Chenopodium album). The data set is described as follows: General preemergence herbicidal activity, common lambsquarters. In kind it is in vivo. The settings on record: pre-emergent, rate 140 g ai/ha, visual score after 20-22 days (0 no injury, 100 complete kill or no emergence), read-out: % Growth Inhibition CHEAL.
Source text: as §4

For data set [6], the system named is ABUTH—Velvetleaf (Abutilon theophrasti). The data set is described as follows: General preemergence herbicidal activity, velvetleaf. In kind it is in vivo. The settings on record: pre-emergent, rate 140 g ai/ha, visual score after 20-22 days (0 no injury, 100 complete kill or no emergence), read-out: % Growth Inhibition ABUTH.
Source text: as §4

The test system of data set [7] is HELAN—Common sunflower (Helianthus annuus). Put plainly: General preemergence herbicidal activity, common sunflower. In kind it is in vivo. Conditions: pre-emergent, rate 140 g ai/ha, visual score after 20-22 days (0 no injury, 100 complete kill or no emergence), read-out: % Growth Inhibition HELAN.
Source text: as §4

The test system of data set [8] is SORVU—Common sorghum (Sorghum vulgare). Put plainly: General preemergence herbicidal activity, common sorghum. Conditions: pre-emergent, rate 140 g ai/ha, visual score after 20-22 days (0 no injury, 100 complete kill or no emergence), read-out: % Growth Inhibition SORVU. In kind it is in vivo.
Source text: as §4

A word on the inhibition: it is the share of the control response that was lost under treatment. What is called melting point is the temperature of the solid-liquid transition.

Molecules are shown by their SMILES.

In turn, `Nc1nc(-c2ccc(Cl)cc2F)nc(C(=O)O)c1Cl` [Compound 11, 6-Amino-5-chloro-2-(4-chloro-2-fluorophenyl)pyrimidine-4-carboxylic acid] showed a melting point of 194 to 196 °C. The pest or weed control at 140 g/ha in [1] was 99%. In addition, the pest or weed control at 140 g/ha in data set [2] stood at 100%. Also, in data set [3], the pest or weed control at 140 g/ha was 100%. For the same compound, the pest or weed control at 140 g/ha in [4] came to 85%. In addition, in the data set on ZEAMX—Corn (Zea mays), the inhibition at 140 g/ha turned out to be 0%. Besides, the inhibition at 140 g/ha in data set [5] is 100%. For the same compound, the inhibition at 140 g/ha in data set [6] is 90%. Moreover, the inhibition at 140 g/ha in [7] came out at 95%. Moreover, the inhibition at 140 g/ha in [8] is 95%.
In turn, `Nc1nc(-c2ccc(Cl)c(F)c2F)nc(C(=O)O)c1Cl` [Compound 12, 6-Amino-5-chloro-2-(4-chloro-2,3-difluorophenyl)pyrimidine-4-carboxylic acid] had a melting point of 209 to 211 °C. Further, in [1], the pest or weed control at 140 g/ha was found to be 100%. Besides, in data set [2], the pest or weed control at 140 g/ha was 100%. The pest or weed control at 140 g/ha in data set [3] came to 90%. In addition, the pest or weed control at 140 g/ha in data set [4] was determined as 90%. For the same compound, in the data set with ZEAMX—Corn (Zea mays), the inhibition at 140 g/ha is 15%. Moreover, the inhibition at 140 g/ha in data set [5] is 100%. The inhibition at 140 g/ha in data set [6] was determined as 100%. In [7], the inhibition at 140 g/ha came to 100%. The inhibition at 140 g/ha in [8] worked out at 90%.
In the case of `Cc1ccc(-c2nc(N)c(Cl)c(C(=O)O)n2)c(F)c1F` [Compound 14, 6-Amino-5-chloro-2-(2,3-difluoro-4-methylphenyl)pyrimidine-4-carboxylic acid], the pest or weed control at 140 g/ha is 90% in data set [1], 80% in data set [2], 85% in [3] and 95% in data set [4]. The inhibition at 140 g/ha came to 30% with ZEAMX—Corn (Zea mays); 100% in data set [5]; 100% in data set [6]; 60% in [7]; 40% in data set [8].
Consider `Nc1nc(-c2ccc(C(F)(F)F)cc2F)nc(C(=O)O)c1Cl` [Compound 15, 6-Amino-5-chloro-2-(2-fluoro-4-trifluoromethylphenyl)pyrimidine-4-carboxylic acid], for which the pest or weed control at 140 g/ha in data set [1] is 40%; in data set [2] it was 65%; in data set [3], 80%; in data set [4], 50%. Moreover, the inhibition at 140 g/ha stood at 65% in the data set on ZEAMX—Corn (Zea mays); 60% in data set [5]; 10% in data set [6]; 10% in data set [7]; 0% in data set [8].
Regarding `Nc1nc(-c2ccc(C(F)(F)F)c(F)c2F)nc(C(=O)O)c1Cl` [Compound 16, 6-Amino-5-chloro-2-(2,3-difluoro-4-trifluoromethylphenyl)pyrimidine-4-carboxylic acid], the pest or weed control at 140 g/ha was determined as 65% in data set [1], 95% in data set [2], 90% in data set [3] and 90% in data set [4]. Further, the inhibition at 140 g/ha in the data set on ZEAMX—Corn (Zea mays) was determined as 30%; in data set [5], 100%; in [6], 60%; in data set [7], 65%; in data set [8] it was 60%.
